Reference: patent publication US7888319B2, “Compositions and methods for promoting wound healing and tissue regeneration” (MUSC Foundation for Research Development, priority 2004, dated 2011)
Ends that are not written are not given here.

Legend:
[1] = test system: 5 mm diameter excisional skin wounds; assay: Small (5 mm) excisional skin wounds in adult mice, ACT 1 to ACT 5; format: in vivo, mouse; conditions: for closure, inflammation, healing and scarring of injuries: 100 μM in pluronic gel, 50-60 μl, applied at 0 and 24 hours, 240 hour time course (10 days), vs gel without peptide; for wound closure rates (area of open wound as % of unclosed wound relative to the control): ~5 mice per condition, Mann-Whitney U-test over the time course
Procedure: Anesthetized adult mice had 2 small (5 mm diameter) excisional skin wounds made by fine surgical scissors on the neck and (upper) back. The boundaries of the injuries were demarcated by a 5 mm wide circular template cut in a plastic sheet. 50-60 μl of a solution of 20% pluronic gel containing either no (control) or one of the ACT peptides (ACT 2-SEQ ID NO: 1, ACT 1-SEQ ID NO:2, ACT 3-SEQ ID NO:3, ACT 4-SEQ ID NO:4, ACT 5-SEQ ID NO:5) dissolved at concentrations of 100 μM were then applied to the excisional injuries. Control or ACT peptide-containing gel was applied subsequently 24 hours after the initial application. No further applications of control and ACT peptide-containing gel were made after the second application. […] Note that the same wound on the same animal is shown at the different time points during the healing time course. Anesthetized adult mice had 2 small (5 mm diameter) excisional skin wounds made by fine surgical scissors on the neck and (upper) back. The boundaries of the injuries were demarcated by a 5 mm wide circular template cut in a plastic sheet. 50-60 μl of a solution of 30% pluronic gel containing either no (control) or one of the ACT peptides (ACT 2—SEQ ID NO:1, ACT 1—SEQ ID NO:2, ACT 3—SEQ ID NO:3, ACT 4—SEQ ID NO:4, ACT 5—SEQ ID NO:5) dissolved at concentrations of 100 μM were then applied to the excisional injuries. Control or ACT peptide-containing gels were applied subsequently 24 hours after the initial application. No further applications of control and ACT peptide-containing gel were made after the second application. […] Note that the same wound on the same animal is shown at the different time points during the healing time course. The area of open wound was measured during the time course using NIH image according to standard protocols on multiple (˜5 mice per control or treatment condition) adult mice. These individual area measurements were then normalized to (i.e., divided by) the average area measured for the control injuries for a given time point, multiplied by 100 to give a % of unclosed wound relative to the control and then plotted against time. A Mann-Whitney U-test was used to statistically assess the effects of ACT peptides over the time course. […] These treatments provided results with significant p values.

[2] = test system: NIH-3T3 cells; assay: In vitro scratch injury of NIH-3T3 monolayer (repopulation, PCNA immunolabeling); format: cell-based; conditions: 30 μM, 24 hours after scratch
Procedure: An NIH-3T3 monolayer was pre-treated with ACT 1 peptide (SEQ ID NO:2) for 24 hrs, and “scratch-injured” with a p200 pipette tip. The “scratch injury” was subsequently allowed to “heal” for 24 hours in the presence of (a, b) 30 μM ACT 1 peptide (SEQ ID NO:2), (c, d) 30 μM non-active control peptide (SEQ ID NO: 55), or (e, f) vehicle control solution containing no ACT peptide or control peptide. […] The repopulation of the “scratch injury” occurs in part via migration of the transformed cells crawling into the “scratch injury” area. Figures (b), (d) and (f) show proliferating cell nuclear antigen (PCNA) immunolabeling of cells in the “scratch injury” or at the injury edge.
NIH-3T3 fibroblasts were “scratch injured” and subject to the continuous presence of 30 μM ACT 1 peptide (SEQ ID NO:2) for 24 hours or the control conditions as outlined in FIG. 2. […] The cells have been labeled with fluorescent phalloidin to aid visualization. ACT peptide-treated cells show low levels of repopulation of the scratch injury area (white double headed arrows).
NIH-3T3 cells were grown over 2-3 days until forming a near-confluent monolayer on a tissue culture dish according to standard protocols and the monolayer was then pre-treated with ACT 1 peptide (SEQ ID NO:2) for 24 hrs, and “scratch-injured” with a p200 pipette tip. The “scratch injury” was subsequently allowed to repopulate for 24 hours in the presence of 30 μM ACT 1 peptide (SEQ ID NO:2) dissolved in the culture media (FIG. 2a, b) or in presence of two control conditions (FIG. 2c-f). In the first control condition, the “scratch-injured” cells were allowed to repopulate for 24 hours in the presence of a non-active control peptide (as in FIG. 1) dissolved in the culture media at a concentration of 30 μM (FIG. 2c, d). In the second control condition, phosphate buffered saline (PBS) was added to the culture media and the “scratch-injured” cells were allowed to repopulate in the presence of this vehicle control solution containing no ACT peptide or control peptide (FIG. 2e, f). […] The repopulation of the “scratch injury” occurs in part via migration of the transformed cells crawling into the “scratch injury” area. Figures (FIGS. 2b, d, and f) show proliferating cell nuclear antigen (PCNA) immunolabeling of cells in the “scratch injury” or at the injury edge.
The cells were labeled with fluorescent phalloidin to aid visualization. ACT peptide-treated cells show low levels of repopulation of the scratch injury area (white double headed arrows).

[3] = test system: brain penetration injury; assay: Penetration injury of brain in adult rat with hollow fiber membrane (HFM) implant; format: in vivo
Procedure: (b) and (c) show low magnification survey views of sections of brain tissue (cortex) surrounding hollow fiber membrane (HFM) implants filled with ACT peptide (100 μM) plus vehicle gel (b) or collagen vehicle gel alone as control (c). In the control tissue (c), a high density of immunolabeled GFAP-positive astrocytes is observed near the site of injury caused by the HFM. The density of these cells appears to diminish slightly distal from the injury. […] Indeed, the levels of GFAP positive cells are not dissimilar to those seen in normal uninjured brain tissue. The regions of tissue within the white rectangles in figures (b) and (c) are shown at higher magnification in (d) and (e) respectively. In the brain injury treated by ACT peptide (d), it can be seen that GFAP-positive astrocytes are not only less numerous, but are also smaller than those seen in the control injury (e).
(a) and (b) show low magnification survey views of sections of brain tissue (cortex) surrounding HFM implants (implant or injury border is shown by arrows) filled with control collagen vehicle gel or ACT peptide plus vehicle gel at 1 week following brain penetration injury. In the control tissue (b), a high density of immunolabeled GFAP-positive astrocytes and a low density of NeuN immunolabeled neurons are observed near the site of injury caused by the HFM. The density of these cells appears to diminish and increase, respectively, distal from the HFM. […] The areas in (a) and (b) proximal to the HFMs are shown at high magnification views in (c) and […], respectively. Again, in the control tissue (d) a striking increase in the density of GFAP-positive astrocytes and a reduced density of NeuN-positive neurons is observed compared to ACT peptide treated tissue (c). A complementary pattern is observed near the HFM containing ACT peptide, with NeuN positive neurons predominating over astrocytes (c).
Anesthetized adult rats were positioned in a stereotaxic apparatus. A midline incision was made on the scalp to expose the skull. A stereotaxic drill was sighted 2 mm posterior to the bregma and 2 holes were drilled with a 1 mm spherical bit, each at 2.5 mm to the right and left of the bregma, and 3.5 mm below the dura. A cerebral lesion was made by inserting an 18-gauge needle. The coordinates were determined from the atlas by Paxinos and Watson (1986). The hollow fiber membrane (HFM) was inserted in the hole and external skin sutures were placed to cover the stab. The ACT peptide was dissolved at 100 μM concentration in a 2% collagen vehicle solution contained within the HFM. […] Reactive astrocytosis associated with inflammation and subsequently with glial scar formation follows a well characterized time course after brain injury in rodent models (Norenberg, 1994; Fawcett and Asher, 1999). […]

[4] = test system: 5 mm-diameter excisional skin wounds; assay: Quantitative assessment of wound closure, tissue regeneration and tensile strength of 5 mm excisional skin wounds; format: in vivo, mouse
Excerpt: ACT peptide (n=12) and control (n=8) 5 mm-diameter excisional skin wounds were generated on adult mice as described above. Quantitative assessments of wound closure rate, counts of regenerated hair follicles and tensile strength measurements were then undertaken on the wounded skin at time points up to 90 days following the initial insult. […] Similarly, at 10 days, when most wounds were nearing completion of closure, a highly significant difference was still maintained such that ACT peptide-treated wounds were on average 43% smaller than control wounds. […] Studies were undertaken of the mechanical properties of healed 5 mm diameter excisional wounds at 1 month and 3 months following injury. For mechanical property measurements, the skin samples were obtained after sacrificing the animal and evaluated using a MTS 858 Mini Bionix (MTS Systems Corporation, MN, USA) equipped with a 5 kg load cell. During measurement the skin sample was extended to break at a rate of 0.5 mm/s. Force and extension was measured at break. The tensile strength (stress) and extension to break (strain) was calculated as follows, Stress (N/mm^2)=Force at break (N)/cross-sectional area of sample (mm^2). Strain (%)=[Increase in length at break (mm)/Original length (mm)]×100. Stress and strain calculations for each wounded skin sample was normalized to a normal skin sample from a nearby area collected from the same animal. […] At 3 months, normalized stress to break of peptide-treated wound skin was on average double that of control wounded skin, although the high variance within the treatment group precluded significant mean separation from the control. […] Further, significant improvements in extensibility of peptide-treated wounds were found. […] By contrast, control wounds at 3 months remained only 60% as extensible as normal skin.

**Q.** Which results are given for RPRPDDVPV [ACT 4]?
**A.** closure, inflammation, healing and scarring of injuries [1]: modest improvement in healing over the control; wound closure rates (area of open wound as % of unclosed wound relative to the control) ([1]; 100 μM): more modest, although consistent, improvement

**Q.** Which “proliferating cell nuclear antigen (PCNA) immunolabeling of cells in the scratch injury or at the injury edge” value [2] does the source give for “RQPKIWFPNRRKPWKIELDDPRPR (not fully specified (N-terminus)) [non-active control peptide, reference compound]” here?
**A.** brightly labeled proliferating cells seen

**Q.** And the “repopulation of the scratch injury area” value ([2]; 24 hrs pre-treatment)?
**A.** large numbers of cells

**Q.** With “ACT peptide: alpha Connexin carboxy-Terminal polypeptide used in brain injury and Example 4 studies; sequence not stated there (RQPKIWFPNRRKPWKKRPRPDDLEI; not fully specified (N-terminus))” as the sequence, how does the “density of GFAP-positive astrocytes adjacent the HFM” value ([3]; 100 μM in 2% collagen vehicle within HFM, 1 week after injury, vs collagen vehicle gel) read?
**A.** much lower density

**Q.** And the “neurons in the process of fission” value ([3]; 100 μM in HFM, 1 week, high magnification view, relative to the control)?
**A.** high frequency of neurons in the process of fission

**Q.** And the “numbers of NeuN immunolabeled neurons proximal to the HFM” value ([3]; 100 μM in HFM, 1 week, vs control)?
**A.** higher numbers

**Q.** What about the “size of GFAP-positive astrocytes” value ([3]; 100 μM in HFM, 1 week, vs control injury) of the same sequence?
**A.** smaller

**Q.** And the “strain (extensibility) required to break wounds” value ([4]; at 1 month, vs control wounds)?
**A.** modestly improved

**Q.** And the “strain to break of peptide-treated wound skin, normalized to normal skin” value ([4]; at 3 months, normalized to normal skin, control wounds 60%)?
**A.** 90%

**Q.** And the “normalized stress to break of wound skin” value ([4]; at 3 months, vs control wounded skin, not significant (high variance))?
**A.** double

**Q.** And the “increase in the number of regenerated hair follicles per unit area of the healed wound over control wounds” value ([4]; at 10 days)?
**A.** 3.2 fold

**Q.** And the “wound size, smaller than control wounds (average)” value ([4]; at 10 days)?
**A.** 43%

**Q.** What about the “wound closure relative to control wounds” value ([4]; within 24 hours of peptide treatment, n=12 vs control n=8) of the same sequence?
**A.** significantly enhanced

**Q.** For RPRPDDLEV [ACT 3], which “closure, inflammation, healing and scarring of injuries” value (“closure, inflammation” for short) [1] is on record?
**A.** closed faster, were significantly less inflamed in appearance, healed faster and scarred less

**Q.** What about the “size of improvement in wound closure over the control, compared among peptides” value ([1]; 100 μM, over the time course) of the same sequence?
**A.** most pronounced improvements over the control

**Q.** And the “wound closure rates (area of open wound as % of unclosed wound relative to the control)” value ([1]; 100 μM)?
**A.** significantly improved wound closure rates

**Q.** With “KARSDDLSV [ACT 5, 9 amino acids of the carboxy terminus of human Cx40]” as the sequence, how does the “closure, inflammation” value [1] read?
**A.** closed faster, were significantly less inflamed in appearance, healed faster and scarred less

**Q.** What about the “wound closure rates (area of open wound as % of unclosed wound relative to the control)” value ([1]; 100 μM) of the same sequence?
**A.** significantly improved wound closure rates

**Q.** PSSRASSRASSRPRPDDLEI [ACT 2] was tested. Which “closure, inflammation” value [1] did it give?
**A.** closed faster, were significantly less inflamed in appearance, healed faster and scarred less

**Q.** And the “wound closure rates (area of open wound as % of unclosed wound relative to the control)” value ([1]; 100 μM)?
**A.** significantly improved wound closure rates
